Measurements from ChEMBL document CHEMBL1145018, “Molecular basis of the antitumor activities of 2-crotonyloxymethyl-2-cycloalkenones” (J Med Chem, 2003).

What was measured:
Assay type in all cases: functional, cell-based
B16 = assay: Tested in vitro growth inhibition against B16 melanotic melanoma cells; details: Mus musculus
HT-29 [1] = assay: Tested for cytotoxicity against HT-29 (wt)cells; details: Homo sapiens
HT-29 [2] = assay: Tested for cytotoxicity against HT-29 (MDR)cells; details: Homo sapiens

SMILES | IC50 (B16) [nM] | IC50 (HT-29 [1]) [nM] | IC50 (HT-29 [2]) [nM]
C/C=C/C(=O)OCC1=CCCCC1=O | 41 | 800 | 1800
C/C=C/C(=O)OCC1=CCCC1=O | 144 |  | 
C/C=C/C(=O)OCC1=CCCCCC1=O | 29 |  | 
CC[C@]1(O)C[C@H]2CN(CCc3c([nH]c4ccccc34)[C@@](C(=O)OC)(c3cc4c(cc3OC)N(C=O)[C@H]3[C@@](O)(C(=O)OC)[C@H](OC(C)=O)[C@]5(CC)C=CCN6CC[C@]43[C@@H]65)C2)C1 [VINCRISTINE] |  | 1 | 17
